Test results reported in patent publication US20200101108A1, “METHODS OF TREATING T CELL EXHAUSTION BY INHIBITING OR MODULATING T CELL RECEPTOR SIGNALING” (THE BOARD OF TRUSTEES OF THE LE-LAND STANDFORD JUNIOR …, priority 2017, published 2020).

Tests used:
[1] = tested on: GD2.28z.FKBP CAR; experiment: Regulation of GD2.28z.FKBP CAR surface expression by shield-1 (FACS); type: cell-based, human; details: adding or subtracting shield-1 in culture medium
From the text: FIG. 1: Characterization of the GD2.28z.FKBP CAR. T cells were transduced with lentivirus encoding the GD2.28z.FKBP CAR on day 1 after activation and subsequently cultured with various concentrations of shield-1 in the growth medium. On day 7, CAR expression was quantified via FACS.

[2] = target: CD19 (Homo sapiens (Human)) (UniProt P15391)
[3] = target: Lck (Homo sapiens, UniProt P06239); details: cited from earlier work
Lck, sequence (P06239 whole entry, species assumed): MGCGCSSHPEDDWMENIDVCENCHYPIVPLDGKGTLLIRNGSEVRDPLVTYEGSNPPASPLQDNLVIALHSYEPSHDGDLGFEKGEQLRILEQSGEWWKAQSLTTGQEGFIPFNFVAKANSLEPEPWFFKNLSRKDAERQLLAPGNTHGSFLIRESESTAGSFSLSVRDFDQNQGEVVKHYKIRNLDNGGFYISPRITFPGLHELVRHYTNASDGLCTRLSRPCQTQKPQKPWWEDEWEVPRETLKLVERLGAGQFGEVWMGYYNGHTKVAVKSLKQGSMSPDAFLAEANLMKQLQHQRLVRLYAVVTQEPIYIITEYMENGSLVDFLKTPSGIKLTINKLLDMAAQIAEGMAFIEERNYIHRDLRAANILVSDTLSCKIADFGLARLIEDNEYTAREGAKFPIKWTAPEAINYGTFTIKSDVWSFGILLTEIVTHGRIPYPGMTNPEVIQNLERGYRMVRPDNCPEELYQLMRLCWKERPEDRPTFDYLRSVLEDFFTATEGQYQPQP

[4] = tested on: HA-GD2.28z CAR T cells; experiment: Cytokine release assay (ELISA), CAR T cells co-cultured with GD2-overexpressing nalm6 in presence of drug; details: drug present during 24 hours co-culture
[5] = tested on: CD19.28z CAR T cells; experiment: CAR T cell activation and degranulation (CD69/CD107a) on co-culture with Nalm6 tumor cells in presence of drug; details: nanomolar levels; 6 hours co-culture with tumor
[6] = tested on: HA-GD2.28z CAR T cells; experiment: Incucyte cytotoxicity after expansion in drug and removal of drug before tumor co-culture; details: expanded in drug, drug removed 18-24 hours before 72 hours co-culture
[7] = tested on: Src kinases; details: cited from earlier work
[8] = tested on: HA-GD2.28z CAR T cells; experiment: Cytokine release after expansion in drug and removal of drug before tumor co-culture; type: cell-based, human
[9] = target: Fyn (Homo sapiens, UniProt P06241); details: cited from earlier work
Fyn, sequence (P06241 whole entry, species assumed): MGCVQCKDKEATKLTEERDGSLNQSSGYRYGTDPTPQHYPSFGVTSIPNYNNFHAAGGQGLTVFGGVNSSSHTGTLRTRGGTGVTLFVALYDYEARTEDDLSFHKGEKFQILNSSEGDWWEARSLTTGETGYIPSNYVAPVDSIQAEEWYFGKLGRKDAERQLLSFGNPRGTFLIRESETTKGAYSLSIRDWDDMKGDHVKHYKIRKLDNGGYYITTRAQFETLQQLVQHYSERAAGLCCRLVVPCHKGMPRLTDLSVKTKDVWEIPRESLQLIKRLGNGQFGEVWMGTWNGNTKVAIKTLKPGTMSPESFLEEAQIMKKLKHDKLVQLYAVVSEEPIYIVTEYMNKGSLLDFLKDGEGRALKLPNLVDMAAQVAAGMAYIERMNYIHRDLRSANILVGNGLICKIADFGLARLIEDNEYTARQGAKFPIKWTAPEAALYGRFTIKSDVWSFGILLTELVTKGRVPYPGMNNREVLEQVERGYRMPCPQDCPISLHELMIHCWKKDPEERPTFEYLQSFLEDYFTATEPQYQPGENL

CC[C@H](C(=O)N1CCCC[C@H]1C(=O)O[C@H](CCc1ccc(OC)c(OC)c1)c1cccc(OCCN2CCOCC2)c1)c1cc(OC)c(OC)c(OC)c1 [shield-1]
CAR surface expression [1]: rapidly and dose-dependently regulated

CD19.28z CAR (FMC63 scFv)
CD69 and CD107a surface expression (FACS) after 6 h co-culture [2]: 80%

Cc1ccc(C(=O)Nc2ccc(CN3CCN(C)CC3)c(C(F)(F)F)c2)cc1C#Cc1cnc2cccnn12 [ponatinib, 3-(imidazo[1,2-b]pyridazin-3-ylethynyl)-4-methyl-N-(4-((4-methylpiperazin-1-yl)methyl)-3-(trifluoromethyl)phenyl)benzamide]
inhibition of Lck [3]: can bind to and inhibit Lck
IFNγ secretion in response to tumor [4]: potently inhibited
IL-2 secretion in response to tumor [4]: potently inhibited
activation and degranulation (CD69 and CD107a co-expression) [5]: potently inhibited activation and degranulation of CAR T cells in a dose-dependent manner
cytotoxic response [6]: more potent cytotoxic response
inhibition of Src kinases [7]: does not affect the function of Fyn or Src kinases
reversibility of the inhibitory effect on CAR T cell function [8]: reversible
CAR T cell cytokine secretion ([8]; expanded in drug, drug removed 18-24 hours before 24 hours co-culture): dose-dependently augmented
inhibition of Fyn [9]: does not affect the function of Fyn or Src kinases
